ChEMBL document CHEMBL4014274, “Oligothiophene compounds inhibit the membrane fusion between H5N1 avian influenza virus and the endosome of host cell” (Eur J Med Chem, 2017)

How the values were obtained:
[1] = Inhibition of Influenza A virus (A/Thailand/Kan353/2004(H5N1)) hemagglutinin expressed in human 293T cells coexpressing NA assessed as reduction in HA mediated viral membrane fusion with MDCK cells pretreated for 30 mins with virus followed by infection in MDCK cells measured after 48 hrs by luciferase reporter gene assay; format: cell-based
[2] = Cytotoxicity against MDCK cells after 2 days by MTT assay; format: cell-based, Canis lupus familiaris; settings: dog
[3] = system: Influenza A virus (A/Thailand/Kan353/2004(H5N1)); assay: Potency index, ratio of CL-385319 IC50 to compound IC50 for inhibition of Influenza A virus (A/Thailand/Kan353/2004(H5N1)) hemagglutinin expressed in human 293T cells coexpressing NA assessed as reduction in HA mediated viral membrane fusion with MDCK cells; format: cell-based
[4] = Inhibition of Influenza A virus (A/Puerto Rico/8/34(H1N1)) neuraminidase activity infected in MDCK cells assessed as reduction in progeny production using 2-(4-Methylumbelliferyl)-a-D-N-acetylneuraminic acid sodium salt as substrate pretreated for 1 hr with virus followed by 1 hr infection in MDCK cells measured after 48 hrs by fluorescence assay; format: cell-based, Influenza A virus (A/Puerto Rico/8/1934(H1N1))
[5] = Influenza A virus, read-out: IC50

Compound | IC50 [1] | CC50 at 48 h [2] [µM] | IC50 [1, 5] [µM] | also measured
[N-]=[N+]=NCCCCc1ccc(-c2ccc(-c3ccc(CCCCN=[N+]=[N-])s3)s2)s1 | Not Active |  |  | 
[N-]=[N+]=NCCCCc1ccc(-c2ccc(-c3cccs3)s2)s1 |  | > 200 | 11.1 | 
NCCCCc1ccc(CCCCN)s1 | Not Active |  |  | 
O=C(NCCCCc1ccc(-c2cccs2)s1)c1cc(F)cc(C(F)(F)F)c1 |  | 27.4 | 19.8 | 
BrCCCCc1ccc(-c2ccc(-c3ccc(-c4ccc(CCCCBr)s4)s3)s2)s1 | Not Active |  |  | 
[N-]=[N+]=NCCCc1ccc(-c2ccc(-c3cccs3)s2)s1 |  | > 200 | 23 | 
NCCCCc1ccc(-c2ccc(-c3ccc(-c4ccc(CCCCN)s4)s3)s2)s1 | Not Active |  |  | 
BrCCCCc1ccc(-c2ccc(-c3cccs3)s2)s1 |  | 23.8 | 11.4 | 
BrCCCc1ccc(-c2ccc(CCCBr)s2)s1 | Not Active |  |  | 
O=C(NCCCCc1ccc(-c2ccc(-c3cccs3)s2)s1)c1cc(F)cc(C(F)(F)F)c1 | Not Active |  |  | 
NCCCCc1ccc(-c2ccc(-c3cccs3)s2)s1 |  | 13.3 | 0.029 | Ratio IC50 [3]: 1000; IC50 [4]: 1.24 µM
[N-]=[N+]=NCCCc1ccc(-c2ccc(-c3ccc(-c4cccs4)s3)s2)s1 |  | > 100 | 46.1 | 
O=C(NCCCc1ccc(-c2ccc(CCCNC(=O)c3cc(F)cc(C(F)(F)F)c3)s2)s1)c1cc(F)cc(C(F)(F)F)c1 | Not Active |  |  | 
NCCCCc1ccc(-c2ccc(-c3ccc(CCCCN)s3)s2)s1 |  | 13 | 0.037 | IC50 [4]: 3.29 µM
O=C(NCCCc1ccc(-c2ccc(CCCNC(=O)c3cc(O)cc(O)c3)s2)s1)c1cc(O)cc(O)c1 | Not Active |  |  | 
[N-]=[N+]=NCCCCc1ccc(-c2ccc(-c3ccc(-c4cccs4)s3)s2)s1 | Not Active |  |  | 
O=C(NCCCc1ccc(-c2cccs2)s1)c1cc(F)cc(C(F)(F)F)c1 |  | 46.7 | 42.1 | 
BrCCCCc1ccc(CCCCBr)s1 | Not Active |  |  | 
O=C(NCCCc1ccc(-c2ccc(-c3cccs3)s2)s1)c1cc(F)cc(C(F)(F)F)c1 | Not Active |  |  | 
NCCCc1ccc(-c2ccc(-c3ccc(CCCN)s3)s2)s1 |  | > 200 | 4.15 | 
O=C(NCCCCc1ccc(-c2ccc(-c3ccc(CCCCNC(=O)c4cc(F)cc(C(F)(F)F)c4)s3)s2)s1)c1cc(F)cc(C(F)(F)F)c1 | Not Active |  |  | 

Compound | IC50 [1] | CC50 at 48 h [2] [µM] | IC50 [1, 5] [µM] | also measured
NCCCc1ccc(-c2ccc(-c3ccc(-c4cccs4)s3)s2)s1 |  | > 200 | 0.171 | IC50 [4]: 0.768 µM
O=C(NCCCc1ccc(-c2ccc(CCCNC(=O)c3ccccc3Cl)s2)s1)c1ccccc1Cl | Not Active |  |  | 
NCCCCc1ccc(-c2ccc(-c3ccc(-c4cccs4)s3)s2)s1 | Not Active |  |  | 
O=C(NCC(c1cccs1)N1CCCC1)c1cc(F)cc(C(F)(F)F)c1 (stereo not drawn) |  | 239 | 6.41 | 
NCCCc1ccc(-c2ccc(-c3cccs3)s2)s1 |  | 18.9 | 2.88 | IC50 [4]: 1.12 µM
BrCCCCc1ccc(-c2ccc(-c3ccc(CCCCBr)s3)s2)s1 |  | > 200 | 0.696 | 
O=C(NCCCCc1ccc(CCCCNC(=O)c2cc(F)cc(C(F)(F)F)c2)s1)c1cc(F)cc(C(F)(F)F)c1 | Not Active |  |  | 
NCCCCc1ccc(-c2ccc(CCCCN)s2)s1 |  | 26.5 | 0.0819 | 
BrCCCc1ccc(-c2ccc(-c3cccs3)s2)s1 |  | 35.3 | 12.5 | 
O=C(NCCCCc1cccs1)c1cc(F)cc(C(F)(F)F)c1 |  | 43.5 | 4.73 | 
O=C(NCCCCc1ccc(-c2ccc(CCCCNC(=O)c3cc(F)cc(C(F)(F)F)c3)s2)s1)c1cc(F)cc(C(F)(F)F)c1 | Not Active |  |  | 
O=C(NCCCc1cccs1)c1cc(F)cc(C(F)(F)F)c1 |  | 40.2 | 7.24 | 
[N-]=[N+]=NCCCCc1ccc(-c2ccc(-c3ccc(-c4ccc(CCCCN=[N+]=[N-])s4)s3)s2)s1 | Not Active |  |  | 
NCCCc1ccc(-c2ccc(CCCN)s2)s1 | Not Active |  |  | 
BrCCCc1ccc(-c2ccc(-c3ccc(CCCBr)s3)s2)s1 |  | > 200 | 6.64 | 
NCCCCc1ccc(-c2cccs2)s1 | Not Active |  |  | 
O=C(NCCCc1ccc(-c2ccc(-c3ccc(CCCNC(=O)c4cc(F)cc(C(F)(F)F)c4)s3)s2)s1)c1cc(F)cc(C(F)(F)F)c1 | Not Active |  |  | 
BrCCCCc1ccc(-c2ccc(-c3ccc(-c4cccs4)s3)s2)s1 | Not Active |  |  | 
BrCCCc1ccc(-c2ccc(-c3ccc(-c4cccs4)s3)s2)s1 |  | > 200 | 74.1 | 
O=C(NCCN1CCCCC1)c1cc(F)cc(C(F)(F)F)c1 |  | 1370 | 10.6 | IC50 [4]: 72 µM
O=C(NCCc1cccs1)c1cc(F)cc(C(F)(F)F)c1 |  |  | 0.22 | 
